This passage reports IC50 results from patent US10647690B2, “2,3-epoxy succinyl derivative, preparation method and use thereof” (Institute of Pharmacology and Toxicology Academy of …, priority 2016, dated 2020).

Read-outs that look alike come from different tables or passages of the source.

The assay concerns the target T1, Cathepsin L (Homo sapiens, UniProt P07711).
T1 construct: purchased Biovision K161-100
Put plainly: IC50 determination against Cathepsin L (Biovision kit K161-100). The assay is classed as biochemical. The conditions noted are these: CTSL. The method, then: 2. Method for determining IC50 of compounds against cathepsin:
IC50 of compounds against Cathepsin L was determined by using Cathepsin L Inhibitor Screening Kit (Product No. K161-100) from Biovision Company;
2.1.1.3 Preparation of Cathepsin L solution: Cathepsin L reagent (3 μl) was added to Cathepsin L enzyme (3 μl), mixed well, and on standing for 1 h, to get 1 mU/μl Cathepsin L enzyme solution. Cathepsin L buffer (24 μl) was added to 1 mU/μl cathepsin L enzyme solution (6 μl), to get 0.2 mU/μl Cathepsin L enzyme solution. 0.2 mU/μl cathepsin L enzyme (23 μl), and DTT (46 μl) were added to Cathepsin L buffer (2231 μl), and mixed well, to prepare Cathepsin L enzyme solution with a volume of 2.3 ml, which was placed on ice for further use.
2.1.2 Preparation of compound solutions: 30 mM and 10 mM compound stock solutions, and control compounds were gradiently diluted in DMSO at a ratio of 1:3, wherein the maximum dilution fold was 19683; the gradiently diluted compound solution (3 μl) was added to Cathepsin K, B, L, and S buffer (27 μl), respectively, and mixed well, wherein the control compounds (FF-FMK, F-F-FMK, FF-FMK and Z-FF-FMK) were at the concentrations of 66.67, 22.22, 7.41, 2.47, 0.82, 0.27, 0.091, 0.03, 0.01, 0.0034 and 0 μM, respectively, the test compounds were at the concentrations of 1000, 333.3, 111.1, 37, 12.3, 4.1, 1.4, 0.46, 0.15, 0.05 and 0 μM, respectively, and the final concentration of DMSO was 10%.
2.1.3.3 Cathepsin L: Cathepsin L substrate (45 μl) was added to Cathepsin L buffer (1755 μl), and mixed well, to prepare Cathepsin L substrate solution with a volume of 1.8 ml, which was placed on ice for further use.
Method for screening cathepsin inhibitors: the cathepsin solution (prepared in Item 2.1.1) was added to a 384-well plate (ProxiPlate-384 Plus, Perkinelmer) at 10 μl/well, and centrifuged at 1000 rpm for Imin; the compound solution (prepared in Item 2.1.2) was then added at 2 μl/well, and every concentration was repeated in two wells; the final concentrations of the test compounds were 100, 33.3, 11.1, 3.7, 1.23, 0.41, 0.14, 0.046, 0.015, 0.005 and 0 μM, respectively, wherein the final concentration of DMSO was 1%; after centrifugation at 1000 rpm for 1 min, the plate was put in a 25° C. incubator for 15 min; the cathepsin substrate solution was then added at 8 µl/well, and centrifuged at 1000 rpm for 1 min; and finally, the fluorescence signal was read in Enspire, wherein the exciting light was at a wavelength of 400 nm, the emitting light was at a wavelength of 505 nm, and continuous reading was performed at 37° C. for 120 min.
Data analysis: the slope (S) for all the samples was calculated by ΔRFU(RFU2−RFU1) and time ΔT(T2−T1), including negative control (Enzyme Control, EC) and positive control (Inhibitor Control, IC: 10 μM (FF-FMK, F-F-FMK, FF-FMK and Z-FF-FMK), and the calculation formula was as followed: Relative inhibition rate %=(SEC−SS)/(SEC−SIC)*100. The IC50 for each compound was obtained by means of fitting by software GraphPad Prism 5.0.

The mark [1] stands for this setting: Exp-1, read-out: IC50 (nM) Exp-1.
Setting [2] is: Exp-2, read-out: IC50 (nM) Exp-2.
[3] abbreviates: average of Exp-1 and Exp-2, read-out: Ave of IC50.

T1 sequence (P07711 114-333): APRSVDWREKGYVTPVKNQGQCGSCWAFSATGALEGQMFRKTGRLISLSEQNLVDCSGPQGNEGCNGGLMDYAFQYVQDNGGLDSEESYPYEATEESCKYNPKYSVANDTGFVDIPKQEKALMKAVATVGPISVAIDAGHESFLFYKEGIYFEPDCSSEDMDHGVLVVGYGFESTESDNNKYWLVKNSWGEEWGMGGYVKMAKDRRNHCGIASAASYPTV

Consider `CCCCCCNC(=O)[C@H](CCSC)NC(=O)[C@H]1O[C@@H]1C(=O)OCC` [Compound 5, (2s, 3s)-2-ethoxycarbonyl-3-[2-[(s)-4-methylthio-1-carbonyl-1-(hexylamino)butane]formylamino]epoxysuccinic acid], for which the IC50 reads like this: under setting [1], 2270 nM; under setting [2], 2330 nM; under setting [3], 2300 nM.
The matching figures for `CCOC(=O)[C@H]1O[C@@H]1C(=O)N[C@@H](CCSC)C(=O)NCCCc1ccccc1` [Compound 8, (2s, 3s)-2-ethoxycarbonyl-3-[2-[(s)-4-methylthio-1-carbonyl-1-(3-phenylpropylamino)butane]formylamino]epoxysuccinic acid]: 3610 nM, 4450 nM and 4030 nM.
On to `CCOC(=O)[C@H]1O[C@@H]1C(=O)N[C@@H](CCSC)C(=O)N1CCC(c2ccccc2)CC1` [Compound 13, (2s, 3s)-2-ethoxycarbonyl-3-[2-[(s)-4-methylthio-1-carbonyl-1-(phenylpiperidinyl)butane]formylamino]epoxysuccinic acid], for which the IC50 is 5880 nM under setting [1], 6630 nM under setting [2] and 6250 nM under setting [3].
`CCOC(=O)[C@H]1O[C@@H]1C(=O)N[C@@H](CCSC)C(=O)NCCc1cccc(F)c1` [Compound 34, (2s, 3s)-2-ethoxycarbonyl-3-[2-[(s)-4-methylthio-1-carbonyl-1-(3-fluorophenylethylamino)butane]formylamino]epoxysuccinic acid]: the IC50 reads like this: under setting [1], 338 nM; under setting [2], 382 nM; under setting [3], 360 nM.
As to `CCOC(=O)[C@H]1O[C@@H]1C(=O)N[C@@H](CCSC)C(=O)NC(CC)CC` [Compound 39, (2s, 3s)-2-ethoxycarbonyl-3-[2-[(s)-4-methylthio-1-carbonyl-1-(1-ethylpropylamino)butane]formylamino]epoxysuccinic acid], the IC50 is, setting by setting: under setting [1], 9250 nM; under setting [2], 9950 nM; under setting [3], 9600 nM.
The matching figures for `CCOC(=O)[C@H]1O[C@@H]1C(=O)N[C@@H](CCSC)C(=O)NCCCCc1ccccc1` [Compound 40, (2s, 3s)-2-ethoxycarbonyl-3-[2-[(s)-4-methylthio-1-carbonyl-1-(4-phenylbutylamino)butane]formylamino]epoxysuccinic acid]: 4160 nM, 4610 nM and 4390 nM.
In the case of `CCOC(=O)[C@H]1O[C@@H]1C(=O)N[C@@H](CC(C)C)C(=O)NCCC(C)C` [zxy-37, E64d, reference compound], the IC50 under setting [1] came to 171 nM, the IC50 under setting [2] worked out at 180 nM and the IC50 under setting [3] was determined as 175 nM.
